# Assay results taken from PubChem BioAssay AID743267 (Broad Institute, 2014).
# Test system: human bronchial epithelial cells, CFTR corrector, plate reader
# Assay: rescue of ΔF508 CFTR function, airway epithelium – human bronchial epithelial cells, plate reader, cherry-pick, two tests, dose response (AID 743267)
# Conditions: measured here: test 1 replicate run
row,Structure (SMILES),AC50
1,COc1cccc(S(=O)(=O)N(C)C[C@@H]2Oc3cc(C4=CCCC4)ccc3S(=O)(=O)N([C@H](C)CO)C[C@H]2C)c1,16 µM
2,COc1cccc(-c2ccc(C3[C@@H]4CN(S(=O)(=O)c5cccc(OC)c5)C[C@H]3N4)cc2)c1 (some centres not stated),13.5 µM
3,C[C@@H]1CN([C@@H](C)CO)C(=O)Cc2cc(N(C)C)ccc2O[C@@H]1CN(C)Cc1ccccc1,3.78 µM
4,C[C@@H]1CN([C@H](C)CO)S(=O)(=O)c2ccc(-c3ccc(C#N)cc3)cc2O[C@H]1CN(C)Cc1ccccn1,16 µM
5,COc1ccc(-c2ccc3c(c2)[C@H]2[C@H](CCN2S(=O)(=O)c2ccc(OC)cc2)[C@H](CO)N3C)cc1,1.17 µM
6,C[C@@H]1CN([C@H](C)CO)S(=O)(=O)c2ccc(-c3ccccc3)cc2O[C@H]1CN(C)Cc1ccccn1,16 µM
7,C[C@@H]1CN([C@@H](C)CO)C(=O)Cc2cc(NC(=O)Nc3cccc4ccccc34)ccc2O[C@@H]1CN(C)Cc1ccc(Cl)c(Cl)c1,2.12 µM
8,COc1cccc(-c2cccc(-c3nc(C(=O)NCC(F)(F)F)cc4c3[C@H](CCO)N([S@@](=O)C(C)(C)C)C4)c2)c1,2.75 µM
9,COc1ccc(-c2ccc3c(c2)[C@H]2[C@H](CCN2S(=O)(=O)c2ccc(OC)cc2)[C@@H](CO)N3C)cc1,9.59 µM
10,COc1ccc(S(=O)(=O)Nc2ccc3c(c2)C(=O)N([C@H](C)CO)C[C@@H](C)[C@@H](CN(C)Cc2ccc(C(F)(F)F)cc2)O3)cc1,> 50 µM

# Same assay, conditions: measured here: test 2 replicate run
row,Structure (SMILES),AC50
1,CCCOCCOC(=O)c1[nH]c2c(c1C)C(=O)CC(c1cc(OC)ccc1OC)C2 (configuration not stated),3.69 µM
2,COc1ccc(CNS(=O)(=O)c2cc(-c3cc(C)no3)ccc2C(C)C)cc1,2.16 µM
3,COc1ccccc1NC(=S)N(Cc1ccco1)Cc1cc2cc(C)cc(C)c2[nH]c1=O,7 µM
4,CC[C@H]1CN2CCC1C[C@H]2[C@H](O)c1ccnc2ccc(OC)cc12 (some centres not stated),12.9 µM
5,COc1ccc2[nH]c(C(=O)N/N=C/c3ccc(O)cc3O)cc2c1,4.83 µM
6,COc1ccc([N+](=O)[O-])cc1Nc1c2ccccc2nc2ccccc12,2.62 µM
7,CCc1ccccc1N(C)S(=O)(=O)c1ccc(-c2cc(C)no2)s1,6.87 µM
8,O=C1OCC2=C1C(c1ccc3c(c1)OCO3)c1cc3c(cc1O2)OCO3 (configuration not stated),2.12 µM
9,O=C1C=CN(C2OC(CO)C(O)C2O)C(=O)C1 (configuration not stated),> 50 µM
10,Cc1cccc(Nc2nc(N)nc(-c3oc4ccccc4c3C)n2)c1,6.65 µM
11,COc1ccc(S(=O)(=O)NCc2ccccn2)cc1NC(=O)c1ccccc1F,1.32 µM
12,Cc1ccc(C)c(CSc2nc3[nH]ncc3c(=O)[nH]2)c1,2.57 µM
13,CC(C)(C)c1cc(C(=O)NN)n(Cc2ccc(Cl)cc2Cl)n1,> 50 µM
14,CC(OC(=O)CCCC(=O)Nc1ccc(F)cc1)C(=O)c1ccccc1 (configuration not stated),> 50 µM
15,COc1cccc(Nc2nc(-c3sc(NC(=O)c4ccccc4)nc3C)cs2)c1,11.6 µM
16,CCc1ccc(-c2nc(C(N)=O)c3[nH]c(=O)n(-c4ccccc4OC)c3n2)cc1,1.33 µM
17,COc1cc([C@@H]2c3cc4c(cc3[C@@H](OC)[C@H]3COC(=O)[C@H]23)OCO4)cc(OC)c1O,2.52 µM
18,CCOc1ccc(C)cc1S(=O)(=O)n1cnc2ccccc21,8.08 µM
19,CCN1/C(=C\c2ccc3cc(C)ccc3[n+]2CC)Sc2cc(C)c(C)cc21,9.9 µM
20,CC[N+]1(CC)CC2=Cc3ccccc3CC2C1 (configuration not stated),27.8 µM
21,C=C1C(=O)O[C@@H]2C[C@@H](C)[C@@H]3C=CC(=O)[C@@]3(C)[C@@H](O)[C@H]12,0.989 µM
22,COc1cc(/C=C2\SC(=Nc3ccc(Cl)c(C(=O)O)c3)NC2=O)c(Br)c(Br)c1O,6.66 µM
23,CCCCn1c(CN2CCN(c3cccc(Cl)c3)CC2)nc2c1c(=O)[nH]c(=O)n2C,4.31 µM

row,Structure (SMILES),AC50
1,Cc1nc(/N=C(\N)NC(=O)NC2CCCCC2)nc2ccccc12,2.76 µM
2,CC(=O)O[C@H]1C(=O)[C@@]2(C)C([C@H](OC(=O)c3ccccc3)[C@]3(O)C[C@H](OC(=O)[C@H](O)[C@@H](NC(=O)c4ccccc4)c4ccccc4)C(C)=C1C3(C)C)[C@]1(OC(C)=O)CO[C@@H]1C[C@H]2O (some centres not stated),5.6 µM
3,N#C/C(=C/c1ccc(N2CCCCC2)o1)C(=O)Nc1ccc2ccccc2c1,6.64 µM
4,O=c1[nH]c(CN2CCN(c3ccc(O)cc3)CC2)nc2scc(-c3ccc(Cl)cc3)c12,6.45 µM
5,CCCCN1C(=O)/C(=C/C=C2\Oc3ccccc3N2CC)SC1=S,9.56 µM
6,Cc1nnc(NC(=O)CSc2nccn2-c2cccc(C)c2C)s1,7.08 µM
7,Cc1cc(C(=O)N/N=C/c2ccc([N+](=O)[O-])cc2)c2ccccc2n1,3.96 µM
8,CCOC1=C/C(=C/c2c(N)n3nc(S(=O)(=O)CC)sc3nc2=O)C=CC1=O,24.9 µM
9,C#C[C@]1(O)CC[C@H]2[C@@H]3CCc4cc(OC)ccc4[C@H]3CC[C@@]21C,2.48 µM
10,COc1ccccc1Nc1nc(-c2sc(NC(=O)C(C)(C)C)nc2C)cs1,3.84 µM
11,O=Cc1ccccc1OCc1ccc2c(c1)OCO2,14.5 µM
12,CC(=O)Nc1ccc(S(=O)(=O)Nc2cccc(-c3nc4cc(C)ccc4o3)c2)cc1,8.92 µM
13,O=C1c2cccc3c(N4CCCCC4)ccc(c23)C(=O)N1c1cccc(O)c1,24.3 µM
14,COc1ccccc1Nc1c2c(nc3ccccc13)CCC2,6.89 µM
15,O=C(NN=C1CCCC1)c1[nH]c2ccc(Cl)cc2c1-c1ccccc1,6.72 µM
16,O=C(NCCOc1ccccc1F)c1cc([N+](=O)[O-])ccc1N1CCOCC1,5.95 µM
17,Cc1ccc(/C=N/NC(=O)c2ccc3ccccc3c2)s1,2.05 µM
18,O=C(N/N=C/c1c(O)ccc2ccccc12)C(=O)N1CCCC1,12.6 µM
19,c1ccc(CCN(Cc2ccccc2)Cc2nc(C3CC3)no2)cc1,24.9 µM
20,COc1cc(/C=C(\C#N)C(=O)c2c[nH]c3ccccc23)cc(OC)c1O,8.32 µM
21,CN1/C(=C\C=C2/SC(=S)NC2=O)C(C)(C)c2ccccc21,18.5 µM
22,COc1cc(-c2cnc3c(NC=O)cc(-c4cccc(C(F)(F)F)c4)cn23)cc(OC)c1OC,7.05 µM
23,C/C(=N\NC(=O)c1cc(-c2cccs2)nc2ccccc12)c1ccccn1,2.45 µM

row,Structure (SMILES),AC50
1,NC(=S)NN=Cc1nccc2c(N)cccc12,3.21 µM
2,COc1cccc2c1C(=O)c1c(O)c3c(c(O)c1C2=O)C[C@@](O)(C(C)=O)C[C@@H]3O[C@H]1C[C@H](N)[C@H](O)[C@H](C)O1,7.44 µM
3,COc1cc(OC)cc(C(=O)c2c(C)c(C#N)c3ccccn23)c1,1.8 µM
4,CCCn1c(CN2CCN(C(=O)OCC)CC2)nc2cc(NC(=O)CC)ccc21,4.34 µM
5,O=S(=O)(Nc1ccc(F)cc1Cl)c1ccc(-c2cnc(C3CC3)o2)cc1,2.23 µM
6,CC1(C(=O)NCc2ccccc2)Cc2c(-c3ccc(C(N)=O)cc3)ccnc2O1 (configuration not stated),5.22 µM
7,CCOc1ccc(NC(=O)c2cc(OC)nc3ccccc23)cc1,1.7 µM
8,CCCCn1cnc2c(c(CC#N)nn2-c2ccccc2)c1=N,> 50 µM
9,COc1cccc(/C=N/NC(=O)C(=O)Nc2ccccc2OC(F)(F)C(F)F)c1O,9.39 µM
10,COc1cc(NC(=O)COC(=O)c2n[nH]c3ccccc23)c(C)cc1[N+](=O)[O-],36.6 µM
11,COc1ccc(C2=Nn3c(nnc3-c3ccccc3OC)SC2)cc1OC1CCOC1 (configuration not stated),0.973 µM
12,COc1ccc(-c2cnc3c(NC=O)cc(-c4ccccc4)cn23)cc1OC,0.793 µM
13,O=C(O)CCCCCCCCc1cn(Cc2ccc(C(=O)c3ccccc3)cc2)nn1,2.17 µM
14,COc1ccc(C2=NOC(C(=O)NCc3ccc(F)cc3)C2)cc1OC (configuration not stated),1.06 µM
15,Clc1ccc(Nc2ccc3ccccc3n2)cc1,8.45 µM
16,C=C1SC(Nc2c(C)cc(C)cc2C)=NC12CCCCC2,5.37 µM
17,COc1ccc(S(=O)(=O)Cc2ccc(C(=O)N3CCN(c4cccc(C)c4)C(C)C3)o2)cc1 (configuration not stated),3.68 µM
18,COc1ccccc1NS(=O)(=O)c1cc(N=N/C(C(=O)Nc2ccc(Cl)cc2)=C(/C)O)ccc1C,36.6 µM
19,NS(=O)(=O)c1ccc(S(=O)(=O)N(CCc2ccccc2)Cc2ccccn2)cc1,< 0.0235 µM
20,Cc1ccc(COc2ccccc2-c2cc(C(=O)N/N=C/c3cccnc3)[nH]n2)cc1,> 50 µM
21,COc1ccc(C2=NOC(C(=O)NCc3ccccc3)C2)cc1 (configuration not stated),2.42 µM
22,CCOC(=O)c1cc2c(=Cc3ccc(N(C)C)cc3)c3ccccc3n2[n+]1C,5.09 µM
23,O=C1c2cccc3c([N+](=O)[O-])ccc(c23)C(=O)N1Cc1cccnc1,10.2 µM

row,Structure (SMILES),AC50
1,CCN(C(=O)CSc1nc2ccccc2c(=O)n1-c1ccccc1F)C1CCS(=O)(=O)C1 (configuration not stated),0.253 µM
2,CC/C=C/CC(=O)N[C@@H](c1ccccc1)[C@@H](O)C(=O)O[C@H]1C[C@@]2(O)[C@@H](OC(=O)c3ccccc3)C3[C@](C)(C(=O)[C@H](OC(C)=O)C(=C1C)C2(C)C)[C@@H](O)C[C@H]1OC[C@@]31OC(C)=O (some centres not stated),3.4 µM
3,COc1ccc(-c2nc(-c3cccc(C)c3)no2)cc1OC,9.13 µM
4,OC[C@@H]1CN(Cc2ccc(-c3ccccc3)cc2)C[C@H](n2cnc3c(NC4CC4)ncnc32)O1,> 50 µM
5,N=c1sccn1CC(=O)Nc1ccc(S(N)(=O)=O)cc1,14.9 µM
6,COc1cc2c(c(Br)c1N)-c1cc(Br)c(N)cc1C2=O,> 50 µM
7,O=C1NC(=O)C(=Cc2ccc(N3CCOCC3)o2)C(=O)N1,> 50 µM
8,CCOc1ccc2[nH]c(C(=O)N/N=C/c3ccc(OC)cc3)cc2c1,36.4 µM
9,COc1cccc(C(=O)Nc2sc3c(c2C#N)CCN(C(C)=O)C3)c1,1.36 µM
10,CCc1cc(-c2nnn(CCC3COCCO3)c2CC)ccc1-c1cn(Cc2ccc3ccccc3c2)nn1 (configuration not stated),0.6 µM
11,C[C@@H](N)Cc1cnc[nH]1,20.1 µM
12,COc1ccc(C(=O)c2ccc(N(C)C)cc2)c(OC)c1,3.82 µM
13,COCCCN=C1NN=C(c2cc(C)n(Cc3ccccc3Cl)c2C)CS1,3.3 µM
14,COc1ccc(CNCC(=O)Nc2ccccc2-n2cccc2)cc1,6.21 µM
15,C=CCn1c(SCC(=O)N(C)C2CCS(=O)(=O)C2)nc2ccccc2c1=O (configuration not stated),26.7 µM
16,O=c1cc(-c2ccc(O)c(O)c2)oc2cc(O)cc(O)c12,29.3 µM
17,COc1ccc(S(=O)(=O)N(C(=O)C(C)C)c2ccc3oc(=O)sc3c2)cc1,7.6 µM
18,Cc1ccc(/C=N/NC(=O)C2COc3ccccc3O2)s1 (configuration not stated),7.28 µM
19,CC(=O)c1cccc(Nc2c3c(nc4ccccc24)CCC3)c1,2.69 µM
20,Cc1cc2nnc(SCC(=O)NCc3ccco3)n2c2ccccc12,6.63 µM
21,Cc1ccc(S(=O)(=O)NCc2ccccc2)cc1C(=O)N1CC(C)CC(C)C1 (configuration not stated),> 50 µM
22,CC(=O)N1CCc2cc(S(=O)(=O)N3c4ccccc4CC3C)ccc21 (configuration not stated),6.73 µM
23,CO/N=C\CC(=O)Nc1ccc(Cl)cc1Cl,30.9 µM
